Legend:
human PI3Kδ enzyme = target: T1, human PI3Kδ enzyme (Homo sapiens, UniProt O00329); experiment: PI3Kδ enzyme inhibitory activity (PI3-Kinase HTRF Assay kit); type: biochemical; details: human PI3Kδ 10 ng/well, ATP 30 μM, PIP2 10 μM, room temperature 30 minutes
T1 construct: purchased Millipore Corporation 14-604
Method: 1. PI3Kδ Enzyme Inhibitory Activity
For the experiment, a PI3-Kinase HTRF Assay kit (Millipore Corporation, Catalogue No. 33-016) and a human PI3Kδ enzyme (Millipore Corporation, Catalogue No. 14-604) were used. The measurement method was in accordance with the appended instructions. The overview thereof is as follows.
PI3Kδ (10 ng/well), phosphatidylinositol-4,5-bisphosphate (10 μM), ATP (30 μM), and the test compound were mixed in a 384-well plate (total 20 μL), and incubated at room temperature for 30 minutes. EDTA and biotinylated phosphatidylinositol-3,4,5-triphosphate were added thereto to stop the reaction. Thereafter, a Europium labeled anti-GST antibody, a GST bond GRP1 PH domain, and streptavidin-APC were added thereto, followed by incubation overnight. An HTRF ratio was measured using an HTRF plate reader. The IC50 value of the compound was calculated, taking the inhibition rate without addition of the enzyme as 100% and the inhibition rate without addition of the test compound as 0%, by means of a logistic method.
(§1) In the Table, Ex represents Example Compound No. as described later, PI3Kδ represents the IC50 value (nM) of a PI3Kδ enzyme inhibitory activity, and PI3Kα represents the IC50 value (nM) of a PI3Kα enzyme inhibitory activity.

Human PI3Kα = target: T2, Human PI3Kα (Homo sapiens, UniProt P42336); experiment: PI3Kα enzyme inhibitory activity (Kinase-Glo Plus luminescence); type: biochemical; details: Human PI3Kα 12 ng/well, phosphatidylinositol 0.2 μg/well, 37° C. for 3 hours
T2 construct: purchased Millipore Corporation 14-602
Method: 2. PI3Kα Enzyme Inhibitory Activity
Human PI3Kα (12 ng/well, Millipore Corporation, Catalogue No. 14-602), phosphatidylinositol (0.2 μg/well), and the test compound were mixed in a 384-well plate in a reaction buffer (50 mM Hepes, 10 mM NaCl, 10 mM MgCl2, 2 mM EGTA, 2 mM DTT, pH 7.3) (total 10 μl), and incubated at 37° C. for 3 hours. After the reaction, 10 μL of a Kinase-Glo Plus reagent (Promega, Catalogue No. V3772) was added thereto, and a luminescence was measured with a luminometer. The IC50 value of the compound was calculated, taking the inhibition rate without addition of the enzyme as 100% and the inhibition rate without addition of the test compound as 0%, by a logistic method.
as §1

T2 sequence (P42336 whole entry): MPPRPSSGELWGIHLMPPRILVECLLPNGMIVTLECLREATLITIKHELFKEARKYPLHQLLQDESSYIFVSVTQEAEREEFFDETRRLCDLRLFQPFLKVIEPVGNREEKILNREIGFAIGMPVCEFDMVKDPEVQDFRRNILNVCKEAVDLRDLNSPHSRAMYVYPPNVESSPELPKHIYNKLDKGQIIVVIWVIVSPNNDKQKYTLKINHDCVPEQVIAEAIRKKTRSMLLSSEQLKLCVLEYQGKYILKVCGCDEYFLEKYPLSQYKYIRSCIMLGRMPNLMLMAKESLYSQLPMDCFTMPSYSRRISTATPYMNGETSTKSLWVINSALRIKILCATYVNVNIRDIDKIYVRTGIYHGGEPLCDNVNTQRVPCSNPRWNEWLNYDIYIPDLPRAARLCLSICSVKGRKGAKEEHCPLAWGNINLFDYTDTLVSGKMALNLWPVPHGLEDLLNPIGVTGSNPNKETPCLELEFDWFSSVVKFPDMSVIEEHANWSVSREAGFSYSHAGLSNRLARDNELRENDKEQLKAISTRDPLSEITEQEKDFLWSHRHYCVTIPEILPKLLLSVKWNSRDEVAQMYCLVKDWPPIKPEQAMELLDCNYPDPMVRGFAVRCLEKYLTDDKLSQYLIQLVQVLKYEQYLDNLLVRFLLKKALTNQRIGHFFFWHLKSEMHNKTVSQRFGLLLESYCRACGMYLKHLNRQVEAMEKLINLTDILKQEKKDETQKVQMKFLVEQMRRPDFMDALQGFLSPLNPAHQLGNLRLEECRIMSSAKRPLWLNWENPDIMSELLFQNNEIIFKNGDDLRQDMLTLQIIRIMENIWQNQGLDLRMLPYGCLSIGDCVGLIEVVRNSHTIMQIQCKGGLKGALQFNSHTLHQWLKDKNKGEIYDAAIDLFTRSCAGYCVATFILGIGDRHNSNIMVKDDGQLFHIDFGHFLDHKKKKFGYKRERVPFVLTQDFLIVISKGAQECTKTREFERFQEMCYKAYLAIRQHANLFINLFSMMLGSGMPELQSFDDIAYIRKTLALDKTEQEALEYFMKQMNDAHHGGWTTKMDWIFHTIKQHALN
T2 sequence (P27986 whole entry partner): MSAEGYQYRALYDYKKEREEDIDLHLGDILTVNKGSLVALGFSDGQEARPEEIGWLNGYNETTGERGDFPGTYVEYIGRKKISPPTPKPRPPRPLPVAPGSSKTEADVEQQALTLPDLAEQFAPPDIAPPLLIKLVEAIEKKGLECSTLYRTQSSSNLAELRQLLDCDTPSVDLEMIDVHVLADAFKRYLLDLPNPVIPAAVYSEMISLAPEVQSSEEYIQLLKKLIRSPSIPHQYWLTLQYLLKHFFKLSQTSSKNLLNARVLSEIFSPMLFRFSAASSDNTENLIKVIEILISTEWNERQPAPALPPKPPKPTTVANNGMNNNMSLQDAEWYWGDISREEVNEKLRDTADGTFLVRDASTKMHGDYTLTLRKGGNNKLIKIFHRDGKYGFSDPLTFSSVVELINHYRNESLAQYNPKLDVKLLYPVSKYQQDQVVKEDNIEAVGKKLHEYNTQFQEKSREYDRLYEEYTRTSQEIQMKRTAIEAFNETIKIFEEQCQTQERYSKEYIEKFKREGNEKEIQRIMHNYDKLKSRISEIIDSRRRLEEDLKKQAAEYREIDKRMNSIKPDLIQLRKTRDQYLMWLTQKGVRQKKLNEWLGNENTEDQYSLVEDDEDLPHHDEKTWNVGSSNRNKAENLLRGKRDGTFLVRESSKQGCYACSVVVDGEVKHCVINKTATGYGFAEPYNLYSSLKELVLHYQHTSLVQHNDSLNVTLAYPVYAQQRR
T1 sequence (O00329 whole entry): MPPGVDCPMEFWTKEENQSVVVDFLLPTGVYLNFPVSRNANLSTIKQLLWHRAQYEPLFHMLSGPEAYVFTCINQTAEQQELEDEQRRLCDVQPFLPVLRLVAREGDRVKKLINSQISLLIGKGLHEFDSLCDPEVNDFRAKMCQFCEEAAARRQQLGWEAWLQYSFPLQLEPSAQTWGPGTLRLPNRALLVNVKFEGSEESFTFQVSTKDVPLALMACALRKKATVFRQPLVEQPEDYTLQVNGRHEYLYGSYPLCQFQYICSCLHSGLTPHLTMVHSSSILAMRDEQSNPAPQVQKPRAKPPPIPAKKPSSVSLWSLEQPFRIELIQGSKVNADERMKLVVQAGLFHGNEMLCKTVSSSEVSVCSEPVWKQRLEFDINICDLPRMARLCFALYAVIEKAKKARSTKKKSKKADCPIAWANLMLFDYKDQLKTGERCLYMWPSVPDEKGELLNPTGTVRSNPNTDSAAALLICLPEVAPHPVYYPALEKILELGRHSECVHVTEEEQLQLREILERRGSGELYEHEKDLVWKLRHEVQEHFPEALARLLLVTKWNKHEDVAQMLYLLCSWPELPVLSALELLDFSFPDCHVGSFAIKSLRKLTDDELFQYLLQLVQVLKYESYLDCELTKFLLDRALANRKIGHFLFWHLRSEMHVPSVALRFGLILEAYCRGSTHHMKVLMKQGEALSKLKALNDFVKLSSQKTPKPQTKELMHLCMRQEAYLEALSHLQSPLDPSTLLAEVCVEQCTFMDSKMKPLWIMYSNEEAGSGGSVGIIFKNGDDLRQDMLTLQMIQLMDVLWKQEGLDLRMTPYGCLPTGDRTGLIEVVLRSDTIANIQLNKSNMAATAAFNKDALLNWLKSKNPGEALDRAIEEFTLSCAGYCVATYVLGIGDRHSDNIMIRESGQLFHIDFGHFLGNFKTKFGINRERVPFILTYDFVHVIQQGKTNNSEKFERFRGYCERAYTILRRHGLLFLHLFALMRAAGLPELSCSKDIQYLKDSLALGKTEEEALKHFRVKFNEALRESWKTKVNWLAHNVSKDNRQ
T1 sequence (P27986 whole entry partner): as the sequence (P27986 whole entry partner) above

SMILES | IC50 (human PI3Kδ enzyme) [nM] | IC50 (Human PI3Kα) [nM]
CNC(=O)N[C@H]1CC[C@H](Nc2nc(N3CCOCC3)nc(-n3c(C(F)F)nc4ccccc43)n2)CC1 [Example 5, 1-[trans-4-({4-[2-(difluoromethyl)-1H-benzimidazol-1-yl]-6-morpholin-4-yl-1,3,5-triazin-2-yl}amino)cyclohexyl]-3-methylurea] | 11 | 210
O=S1(=O)CCCN1[C@H]1CC[C@H](Nc2cc(-n3c(C(F)F)nc4ccccc43)nc(N3CCOCC3)n2)CC1 [Example 18, 6-[2-(difluoromethyl)-1H-benzimidazol-1-yl]-N-[trans-4-(1,1-dioxidoisothiazolin-2-yl)cyclohexyl]-2-morpholin-4-ylpyrimidin-4-amine] | 5 | 2900
N[C@H]1CC[C@H](Nc2nc(N3CCOCC3)nc(-n3c(C(F)F)nc4ccccc43)n2)CC1 [Example 27] | 20 | 990
O=C(N[C@H]1CC[C@H](Nc2nc(N3CCOCC3)nc(-n3c(C(F)F)nc4ccccc43)n2)CC1)C(O)CO (some centres unmarked) [Example 39] | 9.5 | 470
O=S(=O)(N[C@H]1CC[C@H](Nc2cc(-n3c(C(F)F)nc4ccccc43)nc(N3CCOCC3)n2)CC1)c1ccccc1 [Example 95] | 4.9 | 2500
CC(N[C@H]1CC[C@H](Nc2nc(N3CCOCC3)nc(-n3c(C(F)F)nc4ccccc43)n2)CC1)C1CCCCC1 (some centres unmarked) [Example 107] | 8.8 | 
N#Cc1ccc(NC(=O)N[C@H]2CC[C@H](Nc3nc(N4CCOCC4)cc(-n4c(C(F)F)nc5ccccc54)n3)CC2)cc1 [Example 123] | 0.85 | 460
O=C1CCCN1[C@H]1CC[C@H](Nc2cc(-n3c(C(F)F)nc4ccccc43)nc(N3CCOCC3)n2)CC1 [Example 185] | 4.3 | > 3000
CC(=O)N[C@H]1CC[C@H](Nc2nc(N3CCOCC3)nc(-n3c(C(F)F)nc4ccccc43)n2)CC1 [Example 193] | 23 | 550
O=S1(=O)CCCN1[C@H]1CC[C@H](COc2cc(-n3c(C(F)F)nc4ccccc43)nc(N3CCOCC3)n2)CC1 [Example 209] | 20 | 2800
CC(C)(C)OC(=O)NC(C)(C)C(=O)N[C@H]1CC[C@H](Nc2nc(N3CCOCC3)cc(-n3c(C(F)F)nc4ccccc43)n2)CC1 [Example 210] | 22 | 5100
FC(F)c1nc2ccccc2n1-c1cc(OC[C@H]2CC[C@H](N3CCOCC3)CC2)nc(N2CCOCC2)n1 [Example 216] | 5.6 | > 3000
O=S1(=O)CCN([C@H]2CC[C@H](CNc3nc(N4CCOCC4)cc(-n4c(C(F)F)nc5ccccc54)n3)CC2)CC1 [Example 231] | 8.2 | 1500
CC(F)CN(C)[C@H]1CC[C@H](CNc2nc(N3CCOCC3)cc(-n3c(C(F)F)nc4ccccc43)n2)CC1 (some centres unmarked) [Example 330] | 8.6 | 5500
CC(F)C(C)N(C)[C@H]1CC[C@H](CNc2nc(N3CCOCC3)cc(-n3c(C(F)F)nc4ccccc43)n2)CC1 (some centres unmarked) [Example 384] | 16 | 1600
CC(C)(O)CN(CC(C)(C)O)[C@H]1CC[C@H](CNc2nc(N3CCOCC3)cc(-n3c(C(F)F)nc4ccccc43)n2)CC1 [Example 396] | 13 | 2300
CCOCCN(C)[C@H]1CC[C@H](CNc2nc(N3CCOCC3)cc(-n3c(C(F)F)nc4ccccc43)n2)CC1 [Example 397] | 23 | 2900
COCCN(CC(C)(C)O)[C@H]1CC[C@H](CNc2nc(N3CCOCC3)cc(-n3c(C(F)F)nc4ccccc43)n2)CC1 [Example 401] | 15 | 3500
CCN(CC(C)(C)O)[C@H]1CC[C@H](CNc2nc(N3CCOC[C@H]3C)cc(-n3c(C(F)F)nc4ccccc43)n2)CC1 [Example 402] | 3.6 | 610
C#CCN(CC#C)[C@H]1CC[C@H](CNc2nc(N3CCOCC3)cc(-n3c(C(F)F)nc4ccccc43)n2)CC1 [Example 423] | 11 | 4200
C#CCN(C(C)C(C)(C)O)[C@H]1CC[C@H](CNc2nc(N3CCOCC3)cc(-n3c(C(F)F)nc4ccccc43)n2)CC1 (some centres unmarked) [Example 481] | 8.9 | 1100
FC[C@@H]1CCCN1[C@H]1CC[C@@H](COc2cc(-n3c(C(F)F)nc4ccccc43)nc(N3CCOCC3)n2)CC1 [Example 483] | 15 | 8700
FC[C@@H]1CCCN1[C@H]1CC[C@@H](CNc2cc(-n3c(C(F)F)nc4ccccc43)nc(N3CCOCC3)n2)CC1 [Example 485] | 31 | > 10000
CCN(C(=O)COC)[C@H]1CC[C@H](CNc2nc(N3CCOCC3)cc(-n3c(C(F)F)nc4ccccc43)n2)CC1 [Example 499] | 11 | 1500

Next, values leading:

IC50 (human PI3Kδ enzyme) [nM] | IC50 (Human PI3Kα) [nM] | SMILES
4.6 | 330 | O=C(NCCN1CCOCC1)N[C@H]1CC[C@H](Nc2nc(N3CCOCC3)nc(-n3c(C(F)F)nc4ccccc43)n2)CC1 [Example 6, 1-[trans-4-({4-[2-(difluoromethyl)-1H-benzimidazol-1-yl]-6-morpholin-4-yl-1,3,5-triazin-2-yl}amino)cyclohexyl]-3-(2-morpholin-4-ylethyl)urea]
7.1 | 1500 | FC(F)c1nc2ccccc2n1-c1nc(N[C@H]2CC[C@H](N3CCOCC3)CC2)nc(N2CCOCC2)n1 [Example 10, 4-[2-(difluoromethyl)-1H-benzimidazol-1-yl]-6-morpholin-4-yl-N-(trans-4-morpholin-4-ylcyclohexyl)-1,3,5-triazin-2-amine]
4.4 | 1400 | CC(=O)N(C)[C@H]1CC[C@H](Nc2nc(N3CCOCC3)nc(-n3c(C(F)F)nc4ccccc43)n2)CC1 [Example 14, N-[trans-4-({4-[2-(difluoromethyl)-1H-benzimidazol-1-yl]-6-morpholin-4-yl-1,3,5-triazin-2-yl}amino)cyclohexyl]-N-methylacetamide]
16 | 900 | CN(C)CC(=O)N(C)[C@H]1CC[C@H](Nc2nc(N3CCOCC3)nc(-n3c(C(F)F)nc4ccccc43)n2)CC1 [Example 47]
3.4 | 2700 | O=C(CS(=O)(=O)c1ccccc1)N[C@H]1CC[C@H](Nc2nc(N3CCOCC3)cc(-n3c(C(F)F)nc4ccccc43)n2)CC1 [Example 52]
4.6 | 2700 | Cc1ccc(S(=O)(=O)NCC(=O)N[C@H]2CC[C@H](Nc3nc(N4CCOCC4)cc(-n4c(C(F)F)nc5ccccc54)n3)CC2)cc1 [Example 53]
2.1 | 810 | Oc1ccccc1CN[C@H]1CC[C@H](Nc2nc(N3CCOCC3)nc(-n3c(C(F)F)nc4ccccc43)n2)CC1 [Example 104]
2.8 | 2200 | CC(N[C@H]1CC[C@H](Nc2nc(N3CCOCC3)nc(-n3c(C(F)F)nc4ccccc43)n2)CC1)c1ccccc1O (some centres unmarked) [Example 108]
4.6 | 1400 | CN1CCC[C@@H](C(=O)N[C@H]2CC[C@H](Nc3nc(N4CCOCC4)cc(-n4c(C(F)F)nc5ccccc54)n3)CC2)C1 [Example 112]
5.2 | 180 | O=C(NCc1ccc(F)cc1)N[C@H]1CC[C@H](Nc2nc(N3CCOCC3)nc(-n3c(C(F)F)nc4ccccc43)n2)CC1 [Example 116]
1.8 | > 3000 | N#Cc1ccc(NC(=O)N[C@H]2CC[C@H](Nc3cc(-n4c(C(F)F)nc5ccccc54)nc(N4CCOCC4)n3)CC2)cc1 [Example 125]
3.8 | 1800 | O=C(N[C@H]1CC[C@H](Nc2nc(N3CCOCC3)cc(-n3c(C(F)F)nc4ccccc43)n2)CC1)[C@@H]1CCCN1 [Example 154]
9.1 |  | O=C(CN1CCCC1)N[C@H]1CC[C@H](Nc2nc(N3CCOCC3)cc(-n3c(C(F)F)nc4ccccc43)n2)CC1 [Example 187]
4.1 | > 3000 | O=C(CN1CCCCCC1)N[C@H]1CC[C@H](Nc2cc(-n3c(C(F)F)nc4ccccc43)nc(N3CCOCC3)n2)CC1 [Example 190]
8.6 | 2300 | CN(C)CCC(=O)N[C@H]1CC[C@H](Nc2nc(N3CCOCC3)cc(-n3c(C(F)F)nc4ccccc43)n2)CC1 [Example 208]
10 | 6700 | O=S1(=O)CCN([C@H]2CC[C@H](CNc3cc(-n4c(C(F)F)nc5ccccc54)nc(N4CCOCC4)n3)CC2)CC1 [Example 229]
14 | 1000 | CCN(C(C)CF)[C@H]1CC[C@H](CNc2nc(N3CCOCC3)cc(-n3c(C(F)F)nc4ccccc43)n2)CC1 (some centres unmarked) [Example 344]

— patent US20120165309A1, “HETERO RING DERIVATIVE” (Astellas Pharma Inc., priority 2009, published 2012)
